Results published in ChEMBL document CHEMBL4831544, “Discovery of IHMT-EZH2-115 as a Potent and Selective Enhancer of Zeste Homolog 2 (EZH2) Inhibitor for the Treatment of B-Cell Lymphomas” (J Med Chem, 2021).
The source made the active and inactive calls. The rule behind the calls is not given here.

What was measured:
[1] = Cmax in mouse at 10 mg/kg, po measured up to 24 hrs by LC-MS/MS analysis; format: ADME, organism-based; parameters: route oral, dose 10 mg/kg, time <=24; conditions: in vivo
[2] = tested on: Histone-lysine N-methyltransferase EZH2 (Homo sapiens), Q15910 [Y641S]; test: Inhibition of EZH2 Y641S mutant (unknown origin) at 10 uM using SAM as substrate measured up to 960 mins by AlphaScreen microplate reader assay relative to control; conditions: time min <=960
Daudi = test: Antiproliferative activity against human Daudi cells expressing wild type EZH2 assessed as inhibition of cell growth measured after 6 days by CellTiter-Glo luminescent assay; conditions: 144 h
[3] = Apparent volume of distribution in rat at 10 mg/kg, po; format: ADME, organism-based; conditions: in vivo
[4] = AUC (0 to infinity) in rat at 1 mg/kg, iv; format: ADME, organism-based; parameters: route intravenous, time infinity, dose 1 mg/kg; conditions: in vivo
[5] = biological target: Histone-lysine N-methyltransferase, H3 lysine-79 specific (Homo sapiens) (UniProt Q8TEK3); test: Inhibition of DOT1L (unknown origin) at 10 uM using SAM as substrate measured up to 960 mins by AlphaScreen microplate reader assay relative to control; conditions: time min <=960
Histone-lysine N-methyltransferase, H3 lysine-79 specific (Homo sapiens), sequence (Q8TEK3 whole entry, looked up): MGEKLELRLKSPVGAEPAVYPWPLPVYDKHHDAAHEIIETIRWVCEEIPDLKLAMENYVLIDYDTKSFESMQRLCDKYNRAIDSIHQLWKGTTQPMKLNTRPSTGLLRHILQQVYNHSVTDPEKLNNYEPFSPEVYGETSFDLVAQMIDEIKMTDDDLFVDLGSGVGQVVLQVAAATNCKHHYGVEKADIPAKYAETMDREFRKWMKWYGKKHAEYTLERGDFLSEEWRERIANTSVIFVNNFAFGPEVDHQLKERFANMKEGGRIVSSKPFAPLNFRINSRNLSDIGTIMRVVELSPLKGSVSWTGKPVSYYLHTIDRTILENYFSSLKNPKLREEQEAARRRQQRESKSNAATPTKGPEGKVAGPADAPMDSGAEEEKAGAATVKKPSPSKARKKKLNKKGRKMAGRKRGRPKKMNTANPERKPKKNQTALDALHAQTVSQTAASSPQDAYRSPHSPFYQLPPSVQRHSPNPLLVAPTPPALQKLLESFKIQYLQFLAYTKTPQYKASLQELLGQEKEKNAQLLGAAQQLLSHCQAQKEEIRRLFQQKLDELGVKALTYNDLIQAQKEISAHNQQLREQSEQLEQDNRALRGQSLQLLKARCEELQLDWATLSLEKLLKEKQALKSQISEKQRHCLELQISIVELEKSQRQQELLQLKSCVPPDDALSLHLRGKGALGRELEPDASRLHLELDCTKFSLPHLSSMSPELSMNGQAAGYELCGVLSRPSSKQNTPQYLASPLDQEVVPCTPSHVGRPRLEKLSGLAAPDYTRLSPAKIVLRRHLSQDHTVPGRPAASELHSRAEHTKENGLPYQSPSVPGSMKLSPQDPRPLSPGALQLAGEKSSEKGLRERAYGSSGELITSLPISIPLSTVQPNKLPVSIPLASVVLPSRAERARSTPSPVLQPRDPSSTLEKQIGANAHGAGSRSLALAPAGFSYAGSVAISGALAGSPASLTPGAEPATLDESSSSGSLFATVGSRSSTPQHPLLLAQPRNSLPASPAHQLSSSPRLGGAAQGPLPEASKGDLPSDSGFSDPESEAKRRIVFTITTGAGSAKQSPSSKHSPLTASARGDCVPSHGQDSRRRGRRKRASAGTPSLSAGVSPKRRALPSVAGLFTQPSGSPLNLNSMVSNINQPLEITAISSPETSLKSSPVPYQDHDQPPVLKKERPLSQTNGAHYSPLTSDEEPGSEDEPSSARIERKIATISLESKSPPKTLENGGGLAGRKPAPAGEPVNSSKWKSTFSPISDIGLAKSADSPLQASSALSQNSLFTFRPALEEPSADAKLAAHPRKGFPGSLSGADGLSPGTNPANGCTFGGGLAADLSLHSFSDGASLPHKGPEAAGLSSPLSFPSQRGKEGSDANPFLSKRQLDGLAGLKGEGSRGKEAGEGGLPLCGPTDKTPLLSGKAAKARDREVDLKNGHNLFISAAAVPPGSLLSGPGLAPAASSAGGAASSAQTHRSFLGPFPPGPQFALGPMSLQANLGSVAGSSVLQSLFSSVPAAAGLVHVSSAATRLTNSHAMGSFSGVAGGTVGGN

[6] = Antiproliferative activity against human WSUDLCL2 cells harboring EZH2 Y641F mutant assessed as inhibition of cell growth measured after 6 days by CellTiter-Glo luminescent assay; format: functional; conditions: WSUDLCL2, 144 h, time 6 day
[7] = biological target: Histone-lysine N-methyltransferase SUV39H1 (Homo sapiens) (UniProt O43463); test: Inhibition of SUV39H1 (unknown origin) at 10 uM using SAM as substrate measured up to 960 mins by AlphaScreen microplate reader assay relative to control; conditions: time min <=960
[8] = biological target: Protein arginine N-methyltransferase 5 (Homo sapiens) (UniProt O14744); test: Inhibition of PRMT5 (unknown origin) at 10 uM using SAM as substrate measured up to 960 mins by AlphaScreen microplate reader assay relative to control; conditions: time min <=960
Protein arginine N-methyltransferase 5 (Homo sapiens), sequence (O14744 whole entry): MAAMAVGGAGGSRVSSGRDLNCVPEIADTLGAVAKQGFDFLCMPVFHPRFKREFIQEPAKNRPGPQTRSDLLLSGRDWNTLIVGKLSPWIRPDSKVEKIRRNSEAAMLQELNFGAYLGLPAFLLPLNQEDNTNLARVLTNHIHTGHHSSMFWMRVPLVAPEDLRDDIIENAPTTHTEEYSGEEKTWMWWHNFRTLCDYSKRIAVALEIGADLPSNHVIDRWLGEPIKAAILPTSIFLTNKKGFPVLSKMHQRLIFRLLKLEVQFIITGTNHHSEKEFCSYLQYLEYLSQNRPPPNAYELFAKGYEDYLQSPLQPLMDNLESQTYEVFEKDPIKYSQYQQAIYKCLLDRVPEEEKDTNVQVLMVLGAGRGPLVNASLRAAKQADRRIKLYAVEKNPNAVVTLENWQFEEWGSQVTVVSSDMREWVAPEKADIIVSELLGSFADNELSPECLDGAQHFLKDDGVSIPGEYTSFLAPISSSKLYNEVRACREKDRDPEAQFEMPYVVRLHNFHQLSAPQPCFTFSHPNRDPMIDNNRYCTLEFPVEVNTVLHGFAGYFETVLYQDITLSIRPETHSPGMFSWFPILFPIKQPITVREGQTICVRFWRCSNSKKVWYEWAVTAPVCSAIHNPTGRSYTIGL

[9] = biological target: Histone-lysine N-methyltransferase NSD2 (Homo sapiens) (UniProt O96028); test: Inhibition of NSD2 (unknown origin) at 10 uM using SAM as substrate measured up to 960 mins by AlphaScreen microplate reader assay relative to control; conditions: time min <=960
Histone-lysine N-methyltransferase NSD2 (Homo sapiens), sequence (O96028 whole entry): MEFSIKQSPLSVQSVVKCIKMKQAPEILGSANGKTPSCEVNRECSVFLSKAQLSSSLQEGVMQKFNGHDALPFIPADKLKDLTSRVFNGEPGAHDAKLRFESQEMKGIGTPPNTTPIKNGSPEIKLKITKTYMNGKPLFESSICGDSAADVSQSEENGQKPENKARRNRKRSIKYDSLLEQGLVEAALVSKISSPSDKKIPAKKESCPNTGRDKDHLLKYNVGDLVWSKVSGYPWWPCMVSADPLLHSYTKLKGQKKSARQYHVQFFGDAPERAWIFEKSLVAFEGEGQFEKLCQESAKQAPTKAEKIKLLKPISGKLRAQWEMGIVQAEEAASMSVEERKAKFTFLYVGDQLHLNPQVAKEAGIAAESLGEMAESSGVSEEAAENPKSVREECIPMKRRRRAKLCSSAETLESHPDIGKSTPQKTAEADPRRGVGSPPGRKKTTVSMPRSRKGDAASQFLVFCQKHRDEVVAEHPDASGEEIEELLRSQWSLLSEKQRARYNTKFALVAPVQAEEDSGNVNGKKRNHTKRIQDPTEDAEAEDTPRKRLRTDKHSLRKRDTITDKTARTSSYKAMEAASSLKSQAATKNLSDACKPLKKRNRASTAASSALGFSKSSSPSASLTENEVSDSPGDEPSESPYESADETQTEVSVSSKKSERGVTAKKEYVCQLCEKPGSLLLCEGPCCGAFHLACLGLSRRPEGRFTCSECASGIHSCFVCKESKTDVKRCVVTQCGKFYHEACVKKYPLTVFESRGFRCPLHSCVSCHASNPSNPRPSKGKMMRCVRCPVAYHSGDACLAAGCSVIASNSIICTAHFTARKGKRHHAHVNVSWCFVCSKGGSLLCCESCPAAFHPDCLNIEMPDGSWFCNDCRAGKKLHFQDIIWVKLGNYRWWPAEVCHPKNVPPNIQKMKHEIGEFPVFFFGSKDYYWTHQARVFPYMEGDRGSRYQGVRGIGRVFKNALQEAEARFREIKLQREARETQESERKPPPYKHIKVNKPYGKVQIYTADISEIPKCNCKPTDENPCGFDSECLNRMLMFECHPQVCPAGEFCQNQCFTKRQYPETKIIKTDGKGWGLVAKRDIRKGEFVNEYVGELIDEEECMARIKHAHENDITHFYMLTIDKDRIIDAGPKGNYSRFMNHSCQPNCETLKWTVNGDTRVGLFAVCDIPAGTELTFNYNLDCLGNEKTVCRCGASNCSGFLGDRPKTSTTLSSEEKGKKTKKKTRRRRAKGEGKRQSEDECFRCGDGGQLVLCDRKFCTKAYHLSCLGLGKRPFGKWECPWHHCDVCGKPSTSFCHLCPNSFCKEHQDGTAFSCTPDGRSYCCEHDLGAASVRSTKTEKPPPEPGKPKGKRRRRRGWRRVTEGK

Pfeiffer [10] = test: Antitumor activity against human Pfeiffer cells harboring EZH2 A677G mutant xenografted in NCG mouse assessed as tumor growth inhibition at 100 mg/kg, po BID via gavage measured after 28 days relative to control; format: functional; conditions: 672 h, time 28 day, read-out: TGI
[11] = Oral bioavailability in rat at 10 mg/kg; format: ADME, organism-based; conditions: in vivo
[12] = AUC (0 to t) in mouse at 1 mg/kg, iv measured up to 24 hrs by LC-MS/MS analysis; format: ADME, organism-based; parameters: route intravenous, dose 1 mg/kg, time <=24; conditions: in vivo
[13] = AUC (0 to infinity) in rat at 10 mg/kg, po; format: ADME, organism-based; parameters: time infinity, route oral, dose 10 mg/kg; conditions: in vivo
KARPAS-422 [14] = test: Antitumor activity against human KARPAS-422 cells harboring EZH2 Y641N mutant xenografted in NCG mouse assessed as tumor growth inhibition at 100 mg/kg, po BID via gavage measured after 28 days relative to control; format: functional; conditions: KARPAS-422, po, 672 h, time 28 day, read-out: TGI
[15] = Cmax in rat at 10 mg/kg, po; format: ADME, organism-based; parameters: route oral, dose 10 mg/kg; conditions: in vivo
KARPAS-422 [16] = test: Antitumor activity against human KARPAS-422 cells harboring EZH2 Y641N mutant xenografted in NCG mouse assessed as tumor regression at 200 mg/kg, po BID via gavage measured within 10 days; format: functional, organism-based; conditions: time day <10
[17] = tested on: Histone-lysine N-methyltransferase EZH2 (Homo sapiens), Q15910 [Y641N]; test: Inhibition of EZH2 Y641N mutant (unknown origin) at 10 uM using SAM as substrate measured up to 960 mins by AlphaScreen microplate reader assay relative to control; conditions: time min <=960
[18] = biological target: N-lysine methyltransferase KMT5A (Homo sapiens) (UniProt Q9NQR1); test: Inhibition of SET8 (unknown origin) at 10 uM using SAM as substrate measured up to 960 mins by AlphaScreen microplate reader assay relative to control; conditions: time min <=960
N-lysine methyltransferase KMT5A (Homo sapiens), sequence (Q9NQR1 whole entry): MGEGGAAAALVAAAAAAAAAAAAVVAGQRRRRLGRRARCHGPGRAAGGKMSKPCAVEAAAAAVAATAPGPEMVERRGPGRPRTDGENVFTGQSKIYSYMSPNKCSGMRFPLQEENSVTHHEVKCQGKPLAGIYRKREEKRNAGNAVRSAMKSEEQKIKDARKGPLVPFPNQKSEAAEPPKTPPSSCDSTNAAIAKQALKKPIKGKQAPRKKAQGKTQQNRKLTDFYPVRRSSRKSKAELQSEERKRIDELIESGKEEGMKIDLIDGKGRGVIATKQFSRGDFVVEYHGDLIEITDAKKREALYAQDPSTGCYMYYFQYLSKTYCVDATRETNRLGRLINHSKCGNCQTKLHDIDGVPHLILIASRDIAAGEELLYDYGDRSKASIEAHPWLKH

[19] = Half life in mouse at 10 mg/kg, po measured up to 24 hrs by LC-MS/MS analysis; format: ADME, organism-based; conditions: in vivo
KARPAS-422 [20] = test: Antitumor activity against human KARPAS-422 cells harboring EZH2 Y641N mutant xenografted in NCG mouse assessed as change in tumor weight at 200 mg/kg, po BID via gavage measured after 28 days (reference value: 2.14 g); format: functional; conditions: time 28 day
Pfeiffer [21] = test: Antitumor activity against human Pfeiffer cells harboring EZH2 A677G mutant xenografted in NCG mouse assessed as tumor growth inhibition at 50 mg/kg, po BID via gavage measured after 28 days relative to control; format: functional; conditions: 672 h, time 28 day, read-out: TGI
[22] = biological target: Histone-lysine N-methyltransferase SETD7 (Homo sapiens) (UniProt Q8WTS6); test: Inhibition of SET7/9 (unknown origin) at 10 uM using SAM as substrate measured up to 960 mins by AlphaScreen microplate reader assay relative to control; conditions: time min <=960
Histone-lysine N-methyltransferase SETD7 (Homo sapiens), sequence (Q8WTS6 whole entry): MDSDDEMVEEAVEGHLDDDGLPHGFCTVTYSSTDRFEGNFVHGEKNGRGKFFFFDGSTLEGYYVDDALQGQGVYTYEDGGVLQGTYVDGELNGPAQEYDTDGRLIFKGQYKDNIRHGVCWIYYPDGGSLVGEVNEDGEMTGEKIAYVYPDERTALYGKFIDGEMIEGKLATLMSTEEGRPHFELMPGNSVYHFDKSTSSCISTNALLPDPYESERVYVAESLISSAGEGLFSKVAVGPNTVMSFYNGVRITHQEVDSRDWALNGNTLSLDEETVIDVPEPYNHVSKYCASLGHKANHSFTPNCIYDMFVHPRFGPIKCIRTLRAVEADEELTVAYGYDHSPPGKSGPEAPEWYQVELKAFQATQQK

[23] = biological target: Histone-lysine N-methyltransferase SETDB1 (Homo sapiens) (UniProt Q15047); test: Inhibition of SETDB1 (unknown origin) at 10 uM using SAM as substrate measured up to 960 mins by AlphaScreen microplate reader assay relative to control; conditions: time min <=960
[24] = Antiproliferative activity against human WSUDLCL2 cells assessed as inhibition of cell growth measured after 6 days by CellTiter-Glo luminescent assay; format: functional; conditions: WSUDLCL2, 144 h, time 6 day
KARPAS-422 [25] = test: Antitumor activity against human KARPAS-422 cells harboring EZH2 Y641N mutant xenografted in NCG mouse assessed as change in tumor weight at 100 mg/kg, po BID via gavage measured after 28 days (reference value: 2.14 g); format: functional; conditions: time 28 day
Homo sapiens = species: Homo sapiens; test: Inhibition of EZH2 (unknown origin) interaction with EED (unknown origin) at 10 uM relative to control
KARPAS-422 [26] = test: Antiproliferative activity against human KARPAS-422 cells harboring EZH2 Y641N mutant assessed as inhibition of cell growth measured after 6 days by CellTiter-Glo luminescent assay; format: functional; conditions: KARPAS-422, 144 h, time 6 day
[27] = AUC (0 to t) in mouse at 10 mg/kg, po measured up to 24 hrs by LC-MS/MS analysis; format: ADME, organism-based; parameters: route oral, dose 10 mg/kg, time <=24; conditions: in vivo
[28] = biological target: Protein arginine N-methyltransferase 3 (Homo sapiens) (UniProt O60678); test: Inhibition of PRMT3 (unknown origin) at 10 uM using SAM as substrate measured up to 960 mins by AlphaScreen microplate reader assay relative to control; conditions: time min <=960
Protein arginine N-methyltransferase 3 (Homo sapiens), sequence (O60678 2-531 limits assumed): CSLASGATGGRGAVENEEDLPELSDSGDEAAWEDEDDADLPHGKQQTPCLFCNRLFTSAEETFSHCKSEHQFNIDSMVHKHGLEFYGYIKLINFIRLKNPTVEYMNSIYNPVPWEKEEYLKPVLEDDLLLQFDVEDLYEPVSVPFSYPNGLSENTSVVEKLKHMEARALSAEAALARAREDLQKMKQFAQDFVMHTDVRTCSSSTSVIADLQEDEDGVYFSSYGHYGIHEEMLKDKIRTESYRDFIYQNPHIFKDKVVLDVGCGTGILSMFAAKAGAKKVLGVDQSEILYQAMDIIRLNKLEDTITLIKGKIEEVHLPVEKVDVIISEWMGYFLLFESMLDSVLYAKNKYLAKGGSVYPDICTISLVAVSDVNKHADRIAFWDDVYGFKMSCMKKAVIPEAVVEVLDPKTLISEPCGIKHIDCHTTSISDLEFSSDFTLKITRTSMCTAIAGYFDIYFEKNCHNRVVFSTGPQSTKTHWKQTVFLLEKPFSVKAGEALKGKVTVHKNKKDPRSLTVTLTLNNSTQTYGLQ

[29] = Oral bioavailability in mouse at 10 mg/kg measured up to 24 hrs by LC-MS/MS analysis; format: ADME, organism-based; conditions: in vivo
SUD4 = test: Antiproliferative activity against human SU-DHL-4 cells harboring EZH2 Y641S mutant assessed as inhibition of cell growth measured after 6 days by CellTiter-Glo luminescent assay; format: functional; conditions: SU-DHL-4, 144 h, time 6 day
[30] = AUC (0 to infinity) in mouse at 10 mg/kg, po measured up to 24 hrs by LC-MS/MS analysis; format: ADME, organism-based; parameters: route oral, dose 10 mg/kg, time <=24; conditions: in vivo

Compound: CCN(C(=O)C1CC1)c1cc(-c2ccc(N3CCN(CC4CC4)CC3)nc2C)cc(C(=O)NCc2c(C)cc(C)[nH]c2=O)c1C
- Cmax [1]: 671 ng/mL
- inhibition [2]: 90%
- GI50 (Daudi): > 10000 nM
- Vz [3]: 36.559 L/kg
- AUC(0-inf) [4]: 195 ng·h/mL
- inhibition [5]: 0%
- GI50 [6]: 140 nM
- inhibition [7]: 1%
- inhibition [8]: 0%
- inhibition [9]: 10%
- inhibition in vivo at 100 mg/kg (Pfeiffer [10]): 100%
- bioavailability [11]: 31%
- AUC(0-t) at 24 h [12]: 366 ng·h/mL
- AUC(0-inf) [13]: 604 ng·h/mL
- inhibition in vivo at 100 mg/kg (KARPAS-422 [14]): 70.1%
- Cmax [15]: 240 ng/mL
- Activity (KARPAS-422 [16]): Active
- inhibition [17]: 98%
- inhibition [18]: 2%
- t1/2 [19]: 1.3 h
- Activity (KARPAS-422 [20]): 0.057 g
- inhibition in vivo at 50 mg/kg (Pfeiffer [21]): 91.8%
- inhibition [22]: 3%
- inhibition [23]: 1%
- GI50 [24]: 200 nM
- Activity (KARPAS-422 [25]): 0.64 g
- inhibition (Homo sapiens): 21%
- GI50 (KARPAS-422 [26]): 50 nM
- AUC(0-t) at 24 h [27]: 1000 ng·h/mL
- inhibition [28]: 0%
- bioavailability [29]: 27%
- GI50 (SUD4): 3870 nM
- AUC(0-inf) [30]: 1000 ng·h/mL
